Data reported in the NIST ThermoML archive (doi:10.1021/je034102r).

Assay: molar heat capacity at constant pressure
Details: 101.33 kPa, Liquid, heat bridge-scanning calorimeter

CCCCn1cc[n+](C)c1.F[P-](F)(F)(F)(F)F [1-butyl-3-methylimidazolium hexafluorophosphate]
Details	molar heat capacity at constant pressure [J/K/mol]
466.32 K	494.48
466.46 K	494.76
466.59 K	495.05
466.73 K	495.9
466.87 K	495.33
467 K	495.33
467.14 K	495.33
467.28 K	495.05
467.41 K	495.33
467.55 K	495.05
467.84 K	495.05
467.98 K	495.33
468.12 K	495.33
468.25 K	495.9
468.39 K	495.9
468.52 K	495.61
468.66 K	495.61
468.8 K	495.33
468.93 K	495.05
469.25 K	495.33
469.38 K	495.33
469.52 K	495.33
469.66 K	495.33
469.79 K	495.61
469.93 K	495.61
470.07 K	495.61
470.2 K	495.61
470.34 K	496.18
470.48 K	495.61
470.61 K	495.9
470.91 K	495.9
471.04 K	496.18
471.18 K	496.47
471.32 K	496.47
471.45 K	496.47
471.59 K	496.47
471.73 K	496.47
471.87 K	496.18
472 K	496.47
472.3 K	496.47
472.44 K	496.47
472.58 K	496.47
472.71 K	496.75
472.85 K	496.75
472.99 K	496.47
473.12 K	496.47
473.26 K	496.47
473.4 K	496.47
473.53 K	496.47
473.67 K	497.03
473.97 K	498.17
474.1 K	497.6
474.24 K	497.32
474.38 K	497.32
474.51 K	497.6
474.65 K	497.32
474.79 K	497.03
474.92 K	496.75
475.06 K	496.75
475.36 K	496.75
475.5 K	497.03
475.63 K	496.75
475.78 K	497.03
475.92 K	497.03
476.06 K	497.03
476.19 K	497.03
476.33 K	497.03
476.47 K	497.32
476.61 K	497.32
476.74 K	497.32
477.04 K	497.6
477.18 K	497.32
477.31 K	497.6
477.45 K	498.17
477.59 K	497.89
477.72 K	497.89
477.86 K	497.89
478 K	497.6
478.13 K	497.6
478.44 K	497.6
478.57 K	497.6
478.71 K	497.6
478.85 K	497.6
478.98 K	497.6
479.12 K	497.89
479.26 K	497.6
479.39 K	497.6
479.53 K	497.89
479.67 K	497.89
479.81 K	498.17
480.1 K	498.17
480.24 K	498.17
480.38 K	497.89
480.51 K	498.17
480.65 K	498.17
480.79 K	497.89
480.92 K	498.17
481.06 K	498.17
481.2 K	498.17
481.5 K	498.46
481.64 K	498.74
481.78 K	499.31
481.91 K	498.74
482.05 K	498.46
482.2 K	498.46
482.34 K	498.46
482.47 K	498.46
482.61 K	498.46
482.75 K	498.46
482.89 K	498.46
483.19 K	498.46
483.32 K	498.74
483.46 K	499.02
483.6 K	499.02
483.74 K	499.31
483.87 K	499.31
484.01 K	499.31
484.15 K	500.16
484.29 K	500.16
484.59 K	499.59
484.72 K	499.59
484.86 K	499.31
485 K	499.59
485.14 K	499.88
485.27 K	499.59
485.41 K	499.88
485.55 K	499.59
485.69 K	500.16
485.83 K	500.45
485.96 K	501.01
486.26 K	500.73
486.4 K	501.01
486.53 K	501.01
486.67 K	500.45
486.81 K	500.16
486.95 K	500.16
487.08 K	500.45
487.22 K	501.01
487.36 K	500.73
487.66 K	502.15
487.8 K	501.58
487.94 K	501.3
488.07 K	501.01
488.21 K	501.01
488.35 K	501.87
488.48 K	501.3
488.62 K	501.01
488.77 K	500.73
488.91 K	501.3
489.05 K	501.58
489.34 K	501.01
489.48 K	501.58
489.62 K	501.3
489.75 K	501.87
489.89 K	501.3
490.03 K	501.01
490.16 K	501.3
490.3 K	501.87
490.44 K	501.01
490.74 K	500.73
490.88 K	501.3
491.02 K	501.01
491.15 K	501.01
491.29 K	501.01
491.43 K	501.01
491.56 K	500.73
491.7 K	501.3
491.84 K	501.58
491.98 K	501.3
492.11 K	501.01
492.41 K	501.3
492.55 K	502.15
492.69 K	501.87
492.82 K	502.43
492.96 K	502.72
493.1 K	502.15
493.23 K	501.87
493.37 K	501.58
493.51 K	501.3
493.81 K	501.3
493.95 K	502.43
494.09 K	503.29
494.22 K	502.72
494.36 K	502.72
494.5 K	502.72
494.64 K	502.72
494.77 K	502.72
494.91 K	502.72
495.05 K	502.72
495.2 K	503.29
495.5 K	502.72
495.63 K	502.43
495.77 K	502.43
495.91 K	502.43
496.05 K	502.72
496.18 K	503.86
496.32 K	504.14
496.46 K	504.14
496.6 K	503.29
496.9 K	505.56
497.04 K	506.13
497.17 K	506.13
497.31 K	504.99
497.45 K	504.42
497.58 K	504.14
497.72 K	503.57
497.86 K	503.57
498 K	503.57
498.13 K	503.29
498.27 K	503.86
498.57 K	504.71
498.7 K	504.42
498.84 K	505.84
498.98 K	507.27
499.11 K	506.98
499.25 K	505.84
499.39 K	504.99
499.52 K	504.71
499.66 K	504.42
499.96 K	504.14
500.1 K	504.42
500.24 K	504.42
500.37 K	504.42
500.51 K	504.71
500.65 K	505.56
500.79 K	506.13
500.92 K	506.41
501.06 K	506.13
501.2 K	506.41
501.34 K	506.7
501.63 K	505.84
501.78 K	506.98
501.92 K	507.55
502.06 K	506.41
502.19 K	505.84
502.33 K	505.56
502.47 K	505.28
502.61 K	504.99
502.74 K	505.28
503.05 K	505.28
503.18 K	504.99
503.32 K	505.28
503.46 K	505.28
503.59 K	505.28
503.73 K	505.84
503.87 K	505.84
504.01 K	505.84
504.14 K	506.13
504.28 K	507.55
504.42 K	505.84
504.71 K	505.84
504.85 K	505.84
504.99 K	506.13
505.13 K	506.41
505.26 K	506.7
505.4 K	506.41
505.54 K	506.98
505.68 K	506.98
505.81 K	505.84
506.11 K	505.84
506.25 K	506.13
506.39 K	507.83
506.53 K	507.27
506.66 K	506.98
506.8 K	506.98
506.94 K	506.41
507.08 K	506.13
507.21 K	506.13
507.35 K	506.7
507.49 K	506.98
507.78 K	507.27
507.92 K	508.12
508.06 K	508.12
508.21 K	508.12
508.35 K	507.27
508.48 K	506.98
508.62 K	506.98
508.76 K	506.98
508.9 K	507.27
509.2 K	506.7
509.33 K	506.98
509.47 K	507.83
509.61 K	508.69
509.75 K	509.25
509.88 K	509.25
510.02 K	507.55
510.16 K	506.7
510.29 K	506.13
510.43 K	506.7
510.57 K	507.55
510.86 K	507.83
511 K	507.27
511.14 K	506.7
511.28 K	506.41
511.41 K	505.84
511.55 K	506.41
511.69 K	507.27
511.83 K	506.98
511.96 K	506.41
512.26 K	506.7
512.4 K	507.27
512.54 K	507.55
512.68 K	507.55
512.81 K	507.55
512.95 K	506.98
513.09 K	506.7
513.23 K	506.98
513.36 K	506.98
513.5 K	506.7
513.64 K	506.41
513.93 K	506.13
514.07 K	506.13
514.21 K	506.13
514.35 K	506.41
514.48 K	507.27
514.62 K	507.83
514.77 K	507.83
514.91 K	507.27
515.05 K	506.98
515.35 K	507.55
515.49 K	507.55
515.62 K	506.98
515.76 K	506.98
515.9 K	506.98
516.04 K	507.27
516.18 K	507.27
516.31 K	506.98
516.45 K	506.98
516.59 K	506.98
516.73 K	506.7
517.03 K	507.27
517.16 K	506.98
517.3 K	507.27
517.44 K	506.98
517.58 K	506.98
517.71 K	507.27
517.85 K	506.98
517.99 K	506.98
518.13 K	507.27
518.43 K	508.97
518.57 K	508.12
518.71 K	507.83
518.85 K	507.55
518.98 K	507.83
519.12 K	508.12
519.26 K	508.4
519.4 K	508.4
519.53 K	508.4
519.67 K	508.12
519.81 K	508.12
520.11 K	508.12
520.24 K	508.4
520.38 K	508.97
520.52 K	508.97
520.66 K	509.25
520.79 K	509.54
520.93 K	509.54
521.07 K	509.25
521.22 K	508.97
521.52 K	509.25
521.66 K	509.25
521.8 K	509.25
521.94 K	509.25
522.07 K	509.25
522.21 K	509.54
522.35 K	509.82
522.49 K	510.39
522.62 K	510.39
522.76 K	510.11
522.9 K	510.11
523.2 K	510.11
523.33 K	509.82
523.47 K	509.82
523.61 K	509.82
523.75 K	509.82
523.88 K	510.11
524.02 K	510.39
524.16 K	510.11
524.3 K	509.82
524.6 K	509.82
524.74 K	510.11
524.87 K	510.11
